# Data reported in paper PMC12162873, “Modulating phosphatase DUSP22 with BML-260 ameliorates skeletal muscle wasting via Akt independent JNK-FOXO3a repression” (EMBO Molecular Medicine, 2025).
# Where “and” joins values, the source holds several entries; their conditions need not be identical. Equal values may be shown once. Entries after “also recorded” stand apart in the source; their conditions may differ. Read-outs that look alike come from different tables or passages of the source.
# What was measured:
# [1] = tested on: C2C12 myotubes; assay: SUnSET assay of protein synthesis; type: cell-based, mouse; conditions: 10 μM Dex 24 h, 12.5 μM BML-260
# Procedure: The surface sensing of translation (SUnSET) assay was used to measured protein synthesis, in accordance with the published protocol (Vinel et al, [2018]). In brief, 1 μg/mL puromycin was added to the myotube cultures and cell lysates were then harvested 10 min later. Western blotting was carried out using an anti-puromycin 12D10 antibody (MABE343; Millipore).
# [2] = tested on: human skeletal myotubes; assay: Dex-induced atrophy of human donor skeletal myotubes, myotube diameter; type: cell-based; conditions: 10 μM Dex and 12.5 μM BML-260 for 24 h
# From the text: Figure 9 DUSP22 targeting downregulates atrogene expression in immobilized skeletal muscle and inhibits atrophy in human donor myotubes. (A) Effect of immobilization on skeletal muscle mass using the plastic EP tube method (n = 3). (B) qPCR analysis of DUSP22 expression in the TA muscle (IM = immobilized) (n = 3) (p = 0.018). (C) Plot of DUSP22 expression in relation to TA mass (n = 6). (D) Western blot analysis of DUSP22 expression (n = 3) (p = 0.1699). (E) TA mass (n = 9,7) (p = (Sham = <0.0001, BML-260 = 0.007)). […] Quantification of atrogin-1, MuRF-1, and DUSP22 levels relative to GAPDH are also shown. […]
# Human skeletal myoblasts were purchased from Thermo-Fisher Scientific, USA, re-suspended in DM and seeded onto 12-well culture plates at a density of 4.8 × 10^4 cells/well. 72 h later, the differentiated myotubes were treated with 10 μM Dex for 24 h, stained with haematoxylin and eosin (H&E) using a kit (Merck, Germany) and myotube diameter measured by light microscopy analysis of DIC captured images (Olympus CKX41, Olympus Life Science, Japan) and the NIH imaging software Image J 64 (National Institutes of Health, MD, USA). At least 80 myotubes in 5 micrographs were measured in each experimental group.
# [3] = Pharmacokinetics analysis, plasma (LC-MS/MS); type: in vivo, mouse; parameters: peak plasma concentration after injection: unit not given here; conditions: for Plasma Conc. / Plasma Conc., Mean / concentration at 0.25 h / concentration at 0.5 h / concentration at 1.5 h / concentration at 2 h / concentration at 8 h: 5 mg/kg (IP); for concentration at 0.25 h / concentration at 0.5 h / concentration at 1.5 h / concentration at 2 h / concentration at 8 h: intraperitoneal, 5 mg/kg
# Procedure: Assessment of BML-260 pharmacokinetics (PK) was carried out by the company Chaon, Yongin-si, Republic of Korea. BML-260 was administered intraperitoneally at a dose of 5 mg/kg in an injection volume of 10 mL/kg. A total of 21 6-week-old male C57BL/6J mice were divided into two groups as follows: 1) PK (plasma) group (3 mice) and 2) PK (TA muscle) group (18 mice across 6 time points).
# […] Blood was centrifuged to obtain plasma that was then stored at −80 °C. For the PK (TA muscle) group, mice were euthanized at 0.5, 1, 1.5, 2, 6, and 12 h post-administration. The TA muscle was weighed and stored at −80 °C.
# BML-260 levels in plasma and tissue samples were analyzed with liquid chromatography-tandem mass spectrometry (LC-MS/MS) using an Agilent 1200 HPLC system coupled with an AB Sciex 4000 QTrap MS/MS (Agilent Technologies, CA, USA). Quantification limits were determined based on a signal-to-noise ratio greater than 10, with precision below 20% and accuracy between 80% and 120%.
# [4] = tested on: VH1-related (VHR) phosphatase; parameters: method as in Cutshall et al, 2005; conditions: ref Cutshall et al, 2005; cited from earlier work
smiles,measurement,setting,value
O=C(O)c1ccc(N2C(=O)C(=Cc3ccccc3)SC2=S)cc1 (stereo in doubt) [BML-260],protein synthesis (puromycin incorporation),[1],prevented the reduction in protein synthesis
same,mean myotube diameter,[2],recovered the mean myotube diameter
same,Plasma Conc.,"[3]; 0.25 h, individual animals",15.310 ng/mL and 14.890 ng/mL
same,Plasma Conc.,"[3]; 0.5 h, individual animals",9.450 ng/mL and 9.888 ng/mL
same,Plasma Conc.,"[3]; 1.5 h, individual animals",6.230 ng/mL and 6.772 ng/mL
same,Plasma Conc.,"[3]; 2 h, individual animals",5.288 ng/mL and 4.936 ng/mL
same,Plasma Conc.,"[3]; 8 h, individual animals",0.232 ng/mL and 0.333 ng/mL
same,Plasma Conc.,"[3]; 12 h, individual animals",BQL
same,"Plasma Conc., Mean","[3]; 12 h, n = 3",BQL
same,Plasma Conc.,"[3]; 24 h, individual animals",BQL
same,"Plasma Conc., Mean","[3]; 24 h, n = 3",BQL
same,detection in plasma after IP delivery,[3]; 5 mg/kg IP,detectable in the plasma immediately after intraperitoneal; also recorded: could be detected in the plasma
same,time by which plasma concentration is undetectable,"[3]; 5 mg/kg IP, as read by referee #2",~ 8 hours
same,peak plasma concentration after injection,"[3]; 5 mg/kg IP, as read by referee #2 from the PK figure",16
same,concentration at 0.25 h,"[3]; male, C57BL/6J, mouse, plasma, 0.25 h, individual animals, read-out: Plasma Conc.",18.1 ng/mL
same,concentration at 0.25 h,"[3]; male, C57BL/6J, mouse, plasma, 0.25 h, n = 3, read-out: Plasma Conc., Mean",16.1 ng/mL
same,concentration at 0.5 h,"[3]; male, C57BL/6J, mouse, plasma, 0.5 h, individual animals, read-out: Plasma Conc.",11.4 ng/mL
same,concentration at 0.5 h,"[3]; male, C57BL/6J, mouse, plasma, 0.5 h, n = 3, read-out: Plasma Conc., Mean",10.3 ng/mL
same,concentration at 1.5 h,"[3]; male, C57BL/6J, mouse, plasma, 1.5 h, individual animals, read-out: Plasma Conc.",6.66 ng/mL
same,concentration at 1.5 h,"[3]; male, C57BL/6J, mouse, plasma, 1.5 h, n = 3, read-out: Plasma Conc., Mean",6.55 ng/mL
same,concentration at 2 h,"[3]; male, C57BL/6J, mouse, plasma, 2 h, individual animals, read-out: Plasma Conc.",4.85 ng/mL
same,concentration at 2 h,"[3]; male, C57BL/6J, mouse, plasma, 2 h, n = 3, read-out: Plasma Conc., Mean",5.03 ng/mL
same,concentration at 8 h,"[3]; male, C57BL/6J, mouse, plasma, 8 h, individual animals, read-out: Plasma Conc.",0.248 ng/mL
same,concentration at 8 h,"[3]; male, C57BL/6J, mouse, plasma, 8 h, n = 3, read-out: Plasma Conc., Mean",0.271 ng/mL
same,half-life,"[3]; male, C57BL/6J, mouse, plasma, 5 mg/kg IP, as read by referee #2",~1 h
same,inhibitory effect against VHR phosphatase,[4],no inhibitory effect
